From patent US20160108039A1, “TRIAZOLOPYRIDINES AS THROMBIN INHIBITORS FOR THE TREATMENT OF THROMBOEMBOLIC DISEASES” (BAYER PHARMA AKTIENGESELLSCHAFT, priority 2013, published 2016) come the findings set out here.

As a reminder, the IC50 is the point on the concentration scale where inhibition reaches its midpoint.

For test [1], the target named is T1, thrombin (Homo sapiens, UniProt P00734). As to the kind of experiment: Measurement of the thrombin inhibition in buffer. It counts as biochemical. The following applies: human thrombin 0.06 nmol/l in Tris buffer pH 7.4, 22° C., substrate Boc-Asp(OBzl)-Pro-Arg-AMC; in some cases means of individual determinations. Here is the method:
To determine the thrombin inhibition of the substances listed above, a biochemical test system is constructed in which the conversion of a thrombin substrate is used for determining the enzymatic activity of human thrombin. Here, thrombin cleaves aminomethylcoumarin, which is measured fluorescently, from the peptic substrate. The determinations are carried out in microtitre plates.
Substances to be tested are dissolved in various concentrations in dimethyl sulphoxide and incubated for 15 min with human thrombin (0.06 nmol/l dissolved in 50 mmol/l of Tris buffer [C,C,C-tris(hydroxymethyl)aminomethane], 100 mmol/l of sodium chloride, 0.1% BSA [bovine serum albumin], pH 7.4) at 22° C. The substrate (5 μmol/l Boc-Asp(OBzl)-Pro-Arg-AMC from Bachem) is then added. After 30 min of incubation, the sample is excited at a wavelength of 360 nm and the emission is measured at 460 nm. The measured emissions of the test mixtures with test substance are compared to the control mixtures without test substance (only dimethyl sulphoxide instead of test substance in dimethyl sulphoxide) and IC50 values are calculated from the concentration/activity relationships. Representative activity data from this test are given in Table 1 below (in some cases as means of individual determinations): […]

For test [2], the target named is T1, thrombin. As to the kind of experiment: Thrombin-inhibitory activity in plasma samples (ecarin-activated). It counts as biochemical. The settings on record: citrate plasma, ecarin activation, fluorogenic thrombin substrate; read at about 70% of maximum signal (about 12 min); in some cases means. Here is the method: To determine the inhibition of thrombin in plasma samples, plasma prothrombinase is activated by ecarin. Thrombin activity and/or its inhibition by potential inhibitors is/are then measured fluorescently by addition of a substrate.
The substances to be tested are dissolved in various concentrations in dimethyl sulphoxide and diluted with water. In white 96-well flat-bottomed plates, 20 μl of substance dilution are mixed with 20 μl of ecarin solution (ecarin reagent, from Sigma E-0504, final concentration 20 mU per reaction) in Ca buffer (200 mM Hepes+560 mM sodium chloride+10 mM calcium chloride+0.4% PEG) or with 20 μl of Ca buffer (as unstimulated control). Furthermore, 20 μl of fluorogenic thrombin substrate (from Bachem 1-1120, final concentration 50 μmol/l) and 20 μl of citrate plasma (from Octapharma) are added, and the mixture is homogenized well. The plate is measured in a SpectraFluorplus Reader using a 360 nm excitation filter and a 465 nm emission filter every minute over 20 minutes. […] Representative activity data from this test are given in Table 2 below (in some cases as means of individual determinations): […]

Turning to `COc1cc(C(=O)N2CC(C)(CC(C)O)OCC2CF)cn2nc(NCc3cccc(Cl)c3)nc12` (single isomer, unassigned) [Example 56, {[(3-Chlorobenzyl)amino]-8-methoxy[1,2,4]triazolo[1,5-a]pyridin-6-yl}[5-(fluoromethyl)-2-(2-hydroxypropyl)-2-methylmorpholin-4-yl]methanone], the results for the IC50 in test [1] and in test [2] were 1.3 nM and 5.9 nM, respectively.
The corresponding values for `COc1cc(C(=O)N2CC(C)(CCO)OC[C@H]2C)cn2nc(NCc3cccc(Cl)c3)nc12` (single isomer, unassigned) [Example 6] are 8.7 nM and 25 nM.
Taken in the same sequence, the figures for `COc1cc(C(=O)N2CC(C)OCC2CCO)cn2nc(NC(CF)c3cccc(Cl)c3)nc12` (single isomer, unassigned) [Example 18, (2-{[1-(3-Chlorophenyl)-2-fluoroethyl]amino}-8-methoxy[1,2,4]triazolo[1,5-a]pyridin-6-yl) [5-(2-hydroxyethyl)-2-methylmorpholin-4-yl]methanone] were 27 nM and 15 nM.
`COc1cc(C(=O)N2CC(C)OC[C@H]2C)cn2nc(NC(CF)c3cccc(Cl)c3)nc12` (single isomer, unassigned) [Example 5] returned a half-maximal inhibitory concentration (IC50) in test [2] of 87 nM.
Consider `COc1cc(C(=O)N2CC(C)OCC2C(C)(C)O)cn2nc(NCc3cccc(Cl)c3)nc12` (single isomer, unassigned) [Example 40, {2-[(3-Chlorobenzyl)amino]-8-methoxy[1,2,4]triazolo[1,5-a]pyridin-6-yl}[5-(2-hydroxypropan-2-yl)-2-methylmorpholin-4-yl]methanone], for which the IC50 in test [1] was determined as 31 nM; in test [2] it was 75 nM.
Taken in the same sequence, the figures for `COc1cc(C(=O)N2CC3CCN3C(=O)C2C)cn2nc(NC(CF)c3cccc(Cl)c3)nc12` (single isomer, unassigned) [Example 77, 4-[(2-{[1-(3-Chlorophenyl)-2-fluoroethyl]amino}-8-methoxy[1,2,4]triazolo[1,5-a]pyridin-6-yl)carbonyl]-3-methyl-1,4-diazabicyclo[4.2.0]octan-2-one] were 6.4 nM and 5.9 nM.
Taken in the same sequence, the figures for `[2H]C([2H])(C)O[C@@H]1CC(CO)N(C(=O)c2cc(OC)c3nc(NCc4cccc(Cl)c4)nn3c2)C1` (single isomer, unassigned) [Example 74] were 19 nM and 19 nM.
The corresponding values for `COc1cc(C(=O)N2CC(C)CCC2C(N)=O)cn2nc(NCc3cccc(Cl)c3)nc12` (stereo not drawn) [Example 65, 1-({2-[(3-Chlorobenzyl)amino]-8-methoxy[1,2,4]triazolo[1,5-a]pyridin-6-yl}carbonyl)-5-methylpiperidine-2-carboxamide] are 8.9 nM and 102 nM.
As to `COc1cc(C(=O)N2CC(C)(CCO)OCC2CF)cn2nc(NCc3cccc(Cl)c3)nc12` (single isomer, unassigned) [Example 53, {2-[(3-Chlorobenzyl)amino]-8-methoxy[1,2,4]triazolo[1,5-a]pyridin-6-yl}[5-(fluoromethyl)-2-(2-hydroxyethyl)-2-methylmorpholin-4-yl]methanone], the concentration for half-maximal inhibition (IC50) in test [1] came out at 6.9 nM; in test [2], 24 nM.
For the molecule `COc1cc(C(=O)N2CC(C)(C)OCC2C(C)(C)O)cn2nc(NCc3cccc(Cl)c3)nc12` (single isomer, unassigned) [Example 66, {2-[(3-Chlorobenzyl)amino]-8-methoxy[1,2,4]triazolo[1,5-a]pyridin-6-yl}[5-(2-hydroxypropan-2-yl)-2,2-dimethylmorpholin-4-yl]methanone], the IC50 in test [1] is 25 nM; in test [2] it was 24 nM.
The corresponding values for `COc1cc(C(=O)N2CC(C)OCC2(C)C)cn2nc(NCc3cccc(Cl)c3)nc12` (single isomer, unassigned) [Example 27] are 62 nM and 56 nM.
The corresponding values for `COc1cc(C(=O)N2CC(C)OCC23CC(O)C3)cn2nc(NC(CF)c3cccc(Cl)c3)nc12` (single isomer, unassigned) [Example 24, (2-{[1-(3-Chlorophenyl)-2-fluoroethyl]amino}-8-methoxy[1,2,4]triazolo[1,5-a]pyridin-6-yl) [(trans)-2-hydroxy-7-methyl-8-oxa-5-azaspiro[3.5]non-5-yl]methanone] are 9.9 nM and 19 nM.
Taken in the same sequence, the figures for `COc1cc(C(=O)N2CC(C)(CCO)OCC2CF)cn2nc(NCc3cccc(Cl)c3)nc12` (stereo not drawn) [Example 50, {2-[(3-Chlorobenzyl)amino]-8-methoxy[1,2,4]triazolo[1,5-a]pyridin-6-yl}[5-(fluoromethyl)-2-(2-hydroxyethyl)-2-methylmorpholin-4-yl]methanone] were 18 nM and 122 nM.
With `COc1cc(C(=O)N2CC(C)(CC(C)O)OCC2(C)C)cn2nc(NCc3cccc(Cl)c3)nc12` (single isomer, unassigned) [Example 37, {2-[(3-Chlorobenzyl)amino]-8-methoxy[1,2,4]triazolo[1,5-a]pyridin-6-yl}[2-(2-hydroxypropyl)-2,5,5-trimethylmorpholin-4-yl]methanone], the IC50 in test [1] turned out to be 67 nM; in test [2], 112 nM.
The corresponding values for `CCC1C(=O)NC(C)CN1C(=O)c1cc(OC)c2nc(NCc3cccc(Cl)c3)nn2c1` (single isomer, unassigned) [Example 63, 4-({2-[(3-Chlorobenzyl)amino]-8-methoxy[1,2,4]triazolo[1,5-a]pyridin-6-yl}carbonyl)-3-ethyl-6-methylpiperazin-2-one] are 9.8 nM and 24 nM.
The corresponding values for `CC[C@@H]1COC(C)(CCO)CN1C(=O)c1cc(OC)c2nc(NCc3cccc(Cl)c3)nn2c1` (single isomer, unassigned) [Example 70] are 6.1 nM and 35 nM.
For `COc1cc(C(=O)N2CC(C)OCC2C2CC(O)C2)cn2nc(NCc3cccc(Cl)c3)nc12` (single isomer, unassigned) [Example 3, {2-[(3-Chlorobenzyl)amino]-8-methoxy[1,2,4]triazolo[1,5-a]pyridin-6-yl}[5-(3-hydroxycyclobutyl)-2-methylmorpholin-4-yl]methanone], the IC50 in test [1] and in test [2] was 70 nM each time.
Turning to `COc1cc(C(=O)N2CC(C)(C)OCC2C2(O)CC2)cn2nc(NCc3cccc(Cl)c3)nc12` (single isomer, unassigned) [Example 67, {2-[(3-Chlorobenzyl)amino]-8-methoxy[1,2,4]triazolo[1,5-a]pyridin-6-yl}[5-(1-hydroxycyclopropyl)-2,2-dimethylmorpholin-4-yl]methanone], the IC50 in test [1] was 48 nM; in test [2] it was 90 nM.
Taken in the same sequence, the figures for `COc1cc(C(=O)N2CC(C)OCC2CCO)cn2nc(NCc3cccc(Cl)c3)nc12` (racemic) [Example 15, {2-[(3-Chlorobenzyl)amino]-8-methoxy[1,2,4]triazolo[1,5-a]pyridin-6-yl}[5-(2-hydroxyethyl)-2-methylmorpholin-4-yl]methanone] were 53 nM and 75 nM.
As to `[2H]C([2H])(C)O[C@@H]1CC(CO)N(C(=O)c2cc(OC)c3nc(NCc4cccc(Cl)c4)nn3c2)C1` (stereo partly drawn) [Example 73, {2-[(3-Chlorobenzyl)amino]-8-methoxy[1,2,4]triazolo[1,5-a]pyridin-6-yl}[(4R)-4-[(1,1-^2H2)ethyloxy]-2-(hydroxymethyl)pyrrolidin-1-yl]methanone], the half-inhibitory concentration (IC50) in test [2] was 39 nM.
As for `CCC1C(=O)N2CCC2CN1C(=O)c1cc(OC)c2nc(NCc3cccc(Cl)c3)nn2c1` (single isomer, unassigned) [Example 59, 4-({2-[(3-Chlorobenzyl)amino]-8-methoxy[1,2,4]triazolo[1,5-a]pyridin-6-yl}carbonyl)-3-ethyl-1,4-diazabicyclo[4.2.0]octan-2-one], the IC50 worked out at 8.3 nM in test [1] and 11 nM in test [2].
The molecule `COc1cc(C(=O)N2CC(C)(CC(C)O)OCC2CF)cn2nc(NCc3cccc(Cl)c3)nc12` (single isomer, unassigned) [Example 57, {2-[(3-Chlorobenzyl)amino]-8-methoxy[1,2,4]triazolo[1,5-a]pyridin-6-yl}[5-(fluoromethyl)-2-(2-hydroxypropyl)-2-methylmorpholin-4-yl]methanone] returned an IC50 in test [1] of 1000 nM.
Turning to `COc1cc(C(=O)N2CC(C)OCC2(C)C)cn2nc(NCc3cccc(Cl)c3)nc12` (single isomer, unassigned) [Example 28], the IC50 in test [1] turned out to be 180 nM.
